According to publication PMC7587962, “Evaluation of Cytotoxicity and α-Glucosidase Inhibitory Activity of Amide and Polyamino-Derivatives of Lupane Triterpenoids” (Molecules, 2020):
Read-outs that look alike come from different tables or passages of the source.

Tests used:
[1] = system: U251; assay: NCI-60 SRB screen: CNS cancer U251; assay type: cell-based; settings: Homo sapiens, U251
[2] = system: OVCAR-4; assay: NCI-60 SRB screen: ovarian cancer OVCAR-4; assay type: cell-based; settings: Homo sapiens; OVCAR-4; five concentrations, 48 h, SRB; read-out: GI50
[3] = system: SNB-19; assay: NCI-60 SRB screen: CNS cancer SNB-19; assay type: cell-based, human; settings: SNB-19
[4] = system: HS 578T; assay: NCI-60 SRB screen: breast cancer HS 578T; assay type: cell-based, human; settings: HS 578T
[5] = system: NCI/ADR-RES; assay: NCI-60 SRB screen: ovarian cancer NCI/ADR-RES; assay type: cell-based, human
[6] = system: IGROV1; assay: NCI-60 SRB screen: ovarian cancer IGROV1; assay type: cell-based, human; settings: IGROV1
[7] = system: 60 human tumor cell lines; assay: cells
[8] = system: CNS cancer subpanel; assay: NCI-60 screen, subpanel CNS cancer
[9] = system: OVCAR-5; assay: NCI-60 SRB screen: ovarian cancer OVCAR-5; assay type: cell-based, human; settings: OVCAR-5
[10] = system: MOLT-4; assay: NCI-60 SRB screen: leukemia MOLT-4; assay type: cell-based; settings: Homo sapiens, 48 h, MOLT-4
[11] = system: NSCL cancer subpanel; assay: NCI-60 screen, subpanel NSCL cancer
[12] = system: MDA-MB-468; assay: NCI-60 SRB screen: breast cancer MDA-MB-468; assay type: cell-based, human
[13] = system: Colon Cancer subpanel; assay: NCI-60 screen, subpanel Colon Cancer
[14] = system: Leukemia subpanel; assay: NCI-60 screen, subpanel Leukemia
[15] = system: SK-MEL-28; assay: NCI-60 SRB screen: melanoma SK-MEL-28; assay type: cell-based, human; settings: SK-MEL-28
[16] = system: MCF7; assay: NCI-60 SRB screen: breast cancer MCF7; assay type: cell-based; settings: Homo sapiens, 48 h, MCF7
[17] = system: SF-295; assay: NCI-60 SRB screen: CNS cancer SF-295; assay type: cell-based, human; settings: SF-295
[18] = system: SNB-75; assay: NCI-60 SRB screen: CNS cancer SNB-75; assay type: cell-based, human; settings: SNB-75
[19] = system: A549/ATCC; assay: NCI-60 SRB screen: non-small cell lung cancer A549/ATCC; assay type: cell-based, human; settings: A549/ATCC
[20] = system: CCRF-CEM; assay: NCI-60 SRB screen: leukemia CCRF-CEM; assay type: cell-based; settings: Homo sapiens, 48 h
[21] = system: NCI-H23; assay: NCI-60 SRB screen: non-small cell lung cancer NCI-H23; assay type: cell-based, human; settings: NCI-H23
[22] = system: HOP-92; assay: NCI-60 SRB screen: non-small cell lung cancer HOP-92; assay type: cell-based, human; settings: HOP-92
[23] = system: M14; assay: NCI-60 SRB screen: melanoma M14; assay type: cell-based, human; settings: M14
[24] = system: Melanoma subpanel; assay: NCI-60 screen, subpanel Melanoma
[25] = system: EKVX; assay: NCI-60 SRB screen: non-small cell lung cancer EKVX; assay type: cell-based, human
[26] = system: HL-60(TB); assay: NCI-60 SRB screen: leukemia HL-60(TB); assay type: cell-based; settings: Homo sapiens, 48 h, HL-60(TB)
[27] = system: SR; assay: NCI-60 SRB screen: leukemia SR; assay type: cell-based; settings: Homo sapiens, 48 h
[28] = system: UACC-62; assay: NCI-60 SRB screen: melanoma UACC-62; assay type: cell-based, human; settings: UACC-62
[29] = system: OVCAR-3; assay: NCI-60 SRB screen: ovarian cancer OVCAR-3; assay type: cell-based, human; settings: OVCAR-3
[30] = system: SK-MEL-5; assay: NCI-60 SRB screen: melanoma SK-MEL-5; assay type: cell-based, human; settings: SK-MEL-5
[31] = system: NCI-H460; assay: NCI-60 SRB screen: non-small cell lung cancer NCI-H460; assay type: cell-based; settings: Homo sapiens, 48 h, NCI-H460
[32] = system: NCI-H322M; assay: NCI-60 SRB screen: non-small cell lung cancer NCI-H322M; assay type: cell-based, human
[33] = system: Renal Cancer subpanel; assay: NCI-60 screen, subpanel Renal Cancer
[34] = system: UACC-257; assay: NCI-60 SRB screen: melanoma UACC-257; assay type: cell-based, human; settings: UACC-257
[35] = system: Ovarian Cancer subpanel; assay: NCI-60 screen, subpanel Ovarian Cancer
[36] = Homo sapiens, five concentrations, 48 h, SRB, read-out: GI50
[37] = single dose 10 µM, read-out: Percentage Cell Growth
[38] = five concentrations, SRB, read-out: GI50

C=C(C)[C@@H]1CC[C@]2(C(=O)NCCCN)CC[C@]3(C)[C@H](CC[C@@H]4[C@@]5(C)CCC(=O)C(C)(C)[C@@H]5CC[C@]43C)[C@@H]12 [Compound 10]
activity at 10 µM ([1]; U-251, 48 h, single dose 10 µM, read-out: Percentage Cell Growth): -13.8%
GI50 ([1]; U-251, five concentrations, 48 h, SRB, read-out: GI50): 17.7 µM
GI50 [2]: 25.6 µM
GI50 [3, 36]: 24.7 µM
Percentage Cell Growth ([3]; single dose 10 µM): −29.49%
Percentage Cell Growth ([4]; single dose 10 µM): −4.98%
GI50 [4, 36]: 40.5 µM
GI50 [5, 36]: 24.8 µM
Percentage Cell Growth ([5]; single dose 10 µM): −9.52%
GI50 ([6]; Homo sapiens, IGROV-1, five concentrations, 48 h, SRB, read-out: GI50): 21.5 µM
Percentage Cell Growth ([6]; single dose 10 µM): −6.94%
GI50 ([7]; read-out: GI50 ranges against all panels of NCI60): 6.95 to 38.9 µM
GI50 ([7]; read-out: MID a, average sensitivity of all cell line (GI50-MID)): 20.5 µM
MID b, average sensitivity of all cell line of particular subpanel [8]: 23.00 µM
Selectivity, ratio MID a: MID b [8]: 0.89
GI50 [9, 36]: 14.8 µM
Percentage Cell Growth ([9]; single dose 10 µM): −47.68%
activity at 10 µM [10, 37]: 2.76%
GI50 [10, 38]: 12.9 µM
MID b, average sensitivity of all cell line of particular subpanel [11]: 18.71 µM
Selectivity, ratio MID a: MID b [11]: 1.09
GI50 [12, 36]: 12.6 µM
Percentage Cell Growth ([12]; single dose 10 µM): −19.87%
MID b, average sensitivity of all cell line of particular subpanel [13]: 17.82 µM
Selectivity, ratio MID a: MID b [13]: 1.15
MID b, average sensitivity of all cell line of particular subpanel [14]: 14.59 µM
Selectivity, ratio MID a: MID b [14]: 1.40
GI50 [15, 36]: 22.1 µM
Percentage Cell Growth ([15]; single dose 10 µM): −31.42%
activity at 10 µM [16, 37]: -8.46%
GI50 [16, 38]: 10.7 µM
GI50 [17, 36]: 22.6 µM
Percentage Cell Growth ([17]; single dose 10 µM): −26.39%
GI50 [18, 36]: 32.1 µM
Percentage Cell Growth ([18]; single dose 10 µM): −51.56%
Percentage Cell Growth ([19]; single dose 10 µM): −4.70%
GI50 [19, 36]: 19.6 µM
activity at 10 µM [20, 37]: 1.39%
GI50 [20, 38]: 22.1 µM
GI50 [21, 36]: 22.6 µM
Percentage Cell Growth ([21]; single dose 10 µM): −8.47%
Percentage Cell Growth ([22]; single dose 10 µM): −55.49%
GI50 [22, 36]: 10.8 µM
GI50 [23, 36]: 24.7 µM
Percentage Cell Growth ([23]; single dose 10 µM): 5.07%
MID b, average sensitivity of all cell line of particular subpanel [24]: 24.33 µM
Selectivity, ratio MID a: MID b [24]: 0.84
GI50 [25, 36]: 23.3 µM
Percentage Cell Growth ([25]; single dose 10 µM): −15.68%
activity at 10 µM [26, 37]: 1.25%
GI50 [26, 38]: 16.5 µM
activity at 10 µM [27, 37]: 23.7%
GI50 [27, 38]: 9.05 µM
GI50 [28, 36]: 27.4 µM
Percentage Cell Growth ([28]; single dose 10 µM): −22.62%
GI50 [29, 36]: 15.7 µM
Percentage Cell Growth ([29]; single dose 10 µM): −45.89%
GI50 [30, 36]: 19.4 µM
Percentage Cell Growth ([30]; single dose 10 µM): −23.93%
activity at 10 µM [31, 37]: -43.2%
GI50 [31, 38]: 14 µM
GI50 [32, 36]: 17.6 µM
Percentage Cell Growth ([32]; single dose 10 µM): −68.83%
MID b, average sensitivity of all cell line of particular subpanel [33]: 23.80 µM
Selectivity, ratio MID a: MID b [33]: 0.86
GI50 [34, 36]: 20.6 µM
Percentage Cell Growth ([34]; single dose 10 µM): −46.67%
MID b, average sensitivity of all cell line of particular subpanel [35]: 24.63 µM
Selectivity, ratio MID a: MID b [35]: 0.83
